# Like-named read-outs stand apart in the source and are kept apart here.
# Experiments:
# [1] = test system: NFF, neonatal foreskin fibroblasts; experiment: Cell survival assay (clonogenic survival, SRB), normal cells; assay type: cell-based, human; conditions: SRB
# Method: (§1) The cytotoxicities of the compounds of the invention were determined by clonogenic survival of human cancer cells (MM96L, melanoma) and human normal cells (NFF, neonatal foreskin fibroblasts). Cells were incubated with the compounds at various concentrations of compound (0.01-10 μg/mL) for 24 hours, washed, and then grown for a further four days in the absence of hydroxamic acid before determining cell survival by cell count. The final readout involved staining with sulforhodamine B (SRB), a cost-effective method amenable to automation and high throughput analysis. At the technical level, “cell sensitivity” is often inferred from short term (1-2 day) observations such as apoptosis, which may not be a satisfactory model of clonogenic survival.
# (§2) Cell Lines and Culture Medium. All cell lines used in this study have been described previously (Parsons et al., 1986; Todaro et al., 1980; Glenn et al., 2004). All cell lines were cultured in 10% heat-inactivated foetal calf serum (CSL, Australia) in RPMI 1640 medium supplemented with 100 U/mL penicillin, 100 μg/mL streptomycin, and 3 mM HEPES at 5% CO2, 99% humidity at 37° C. Primary human fibroblasts were obtained from neonatal foreskins and cultured in the above medium. Routine mycoplasma tests were performed using Hoechst stain^i and were always negative.
# (§3) Cell Survival Assay. Cells were plated into 96-well microtitre plates at 5×10^3 cells/well, and allowed to adhere overnight. Test compounds were added to culture medium at the indicated concentrations, and plates incubated in the above conditions for 24 hours. Following this incubation period, compounds and media were removed, and replaced with fresh culture medium. Cells were then grown for a further 72 hours before assay using sulforhodamine B (SRB; Sigma, St. Louis, Mo.) as previously described. Briefly, the culture medium was removed from the 96-well microtitre plates and the plates washed twice with phosphate buffered saline (PBS), before the cells were fixed with methylated spirits for 15 minutes. The plates were then rinsed with tap water and the fixed cells stained with 50 μL/well of SRB solution (0.4% sulforhodamine B (w/v) in 1% (v/v) acetic acid) over a period of 1 hour. The SRB solution was then removed from the wells and the plates rapidly washed two times with 1% (v/v) acetic acid. Protein bound dye was then solubilised with the addition of 100 μL of 10 mM unbuffered Tris, and incubated for 15 min at 25° C. Plates were then read at 564 nm on a VERSA max tunable microplate reader (Molecular Devices, Sunnyvale, Calif.).
# MM96L melanoma cells = experiment: Cell survival assay (clonogenic survival, SRB); assay type: cell-based, human; conditions: for SI (Selectivity Index = IC50 (NFF)/IC50 (MM96L)): NFF vs MM96L
# Method: as §1, §2, §3
# [2] = Homo sapiens, Fibroblast, NFF normal fibroblasts, 24 h with compound, further 72 h growth, read-out: IC50 (uM) NFF
# [3] = Homo sapiens, MM96L, MM96L melanoma, 24 h with compound, further 72 h growth, SRB, read-out: IC50 (uM) MM96L
# [4] = Table 5, 24 hours with compound, further growth, read-out: IC50 NFF
# [5] = Table 5, 24 hours with compound, further growth, SRB, read-out: IC50 MM96L
# [6] = Table 5, Selectivity Index = IC50 (NFF)/IC50 (MM96L)
# [7] = Homo sapiens, Fibroblast, 24 h, Table 6, 24 hours with compound, further growth, read-out: IC50 (μM) NFF
# [8] = Homo sapiens, MM96L, 24 h, Table 6, 24 hours with compound, further growth, SRB, read-out: IC50 (μM) MM96L
# [9] = Table 6, IC50 (NFF)/IC50 (MM96L)
# [10] = Table 8, 24 hours with compound, further growth, read-out: IC50 (μM) NFF
# [11] = Table 8, 24 hours with compound, further growth, SRB, read-out: IC50 (μM) MM96
# [12] = Table 8, IC50 (NFF)/IC50 (MM96L)
# [13] = Table 6, 24 hours with compound, further growth, read-out: IC50 (μM) NFF
# [14] = Table 6, 24 hours with compound, further growth, SRB, read-out: IC50 (μM) MM96L
# [15] = NFF normal fibroblasts, 24 h with compound, further 72 h growth, read-out: IC50 (uM) NFF
# [16] = Homo sapiens, MM96L, most preferred compounds, exemplary examples, read-out: potency of IC50 against the MM96 melanoma cells
# [17] = MM96L melanoma, 24 h with compound, further 72 h growth, SRB, read-out: IC50 (uM) MM96L
smiles,measurement,setting,value
O=C(CCCCC[C@H](NC(=O)c1ccc(Br)cc1)C(=O)NCc1ccncc1)NO [Example 158],IC50,[1]; [2],5.24 µM
same,IC50,MM96L melanoma cells; [3],0.837 µM
same,SI (Selectivity Index = IC50 (NFF)/IC50 (MM96L)),MM96L melanoma cells,6.3
O=C(CCCSC[C@H](NC(=O)c1ccc2ccccc2c1)C(=O)NCc1ccccc1)NO [Example 38],IC50,[1]; [4],1.14 ± 0.05 µM
same,IC50,MM96L melanoma cells; [5],0.6 ± 0.2 µM
same,Selectivity,MM96L melanoma cells; [6],1.9
CN(C)c1ccc(C(=O)N[C@@H](CSCCCC(=O)NO)C(=O)NCC2CCCCC2)cc1 [Example 88],IC50,[1]; [7],3.6 ± 0.2 µM
same,IC50,MM96L melanoma cells; [8],0.51 ± 0.09 µM
same,Selectivity,MM96L melanoma cells; [9],7.1
O=C(CCCSC[C@H](NC(=O)Cc1cccc2ccccc12)C(=O)NCc1ccccc1)NO [Example 45],IC50,[1]; [4],15 ± 1 µM
same,IC50,MM96L melanoma cells; [5],4.1 ± 0.7 µM
same,Selectivity,MM96L melanoma cells; [6],3.7
CN(C)c1ccc(C(=O)N[C@@H](CSCCCC(=O)NO)C(=O)NCc2ccc(C(=O)NCc3ccccn3)cc2)cc1 [Example 108],IC50,[1]; [10],16.9 µM
same,IC50,MM96L melanoma cells; [11],2.28 µM
same,Selectivity,MM96L melanoma cells; [12],7.4
O=C(CCCSC[C@H](NC(=O)C(c1ccccc1)c1ccccc1)C(=O)NCc1ccccc1)NO [Example 43],IC50,[1]; [4],22 ± 2 µM
same,IC50,MM96L melanoma cells; [5],9.3 ± 0.3 µM
same,Selectivity,MM96L melanoma cells; [6],2.4
CN(C)c1ccc(C(=O)N[C@@H](CSCCCC(=O)NO)C(=O)NCCc2cccc(Br)c2)cc1 [Example 85],IC50,[1]; [13],3.1 ± 0.1 µM
same,IC50,MM96L melanoma cells; [14],0.9 ± 0.1 µM
same,Selectivity,MM96L melanoma cells; [9],3.4
CN(C)c1ccc(C(=O)N[C@@H](CSCCCC(=O)NO)C(=O)Nc2cccc3cccnc23)cc1 [Example 68],IC50,[1]; [7],3 ± 0.3 µM
same,IC50,MM96L melanoma cells; [8],0.61 ± 0.08 µM
same,Selectivity,MM96L melanoma cells; [9],5.0
O=C(/C=C/c1ccccc1)N[C@@H](CCCCCC(=O)NO)C(=O)NCc1ccccc1 [Example 137],IC50,[1]; [15],4.01 µM
same,IC50,MM96L melanoma cells; [16],≤ 0.5 µM
same,IC50,MM96L melanoma cells; [17],0.46 µM
same,SI (Selectivity Index = IC50 (NFF)/IC50 (MM96L)),MM96L melanoma cells,8.7
CN(C)c1ccc(C(=O)N[C@@H](CSCCCC(=O)NO)C(=O)NCc2ccc(C(=O)NCc3nc4ccccc4[nH]3)cc2)cc1 [Example 113],IC50,[1]; [10],15.8 µM
same,IC50,MM96L melanoma cells; [11],3.96 µM
same,Selectivity,MM96L melanoma cells; [12],4.0
CN(C)c1ccc(C(=O)N[C@@H](CSCCCC(=O)NO)C(=O)NC2(Cc3ccccc3)CCCC2)cc1 [Example 87],IC50,[1]; [13],4.2 ± 0.5 µM
same,IC50,MM96L melanoma cells; [14],0.6 ± 0.1 µM
same,Selectivity,MM96L melanoma cells; [9],7.0
O=C(CCCCC[C@H](NC(=O)c1ccc(C(F)(F)F)cc1)C(=O)NCc1ccccc1)NO [Example 155],IC50,[1]; [2],1.61 µM
same,IC50,MM96L melanoma cells; [3],0.665 µM
same,SI (Selectivity Index = IC50 (NFF)/IC50 (MM96L)),MM96L melanoma cells,2.4
O=C(CCCSC[C@H](NC(=O)c1cnccn1)C(=O)NCc1ccccc1)NO [Example 35],IC50,[1]; [4],62 ± 5 µM
same,IC50,MM96L melanoma cells; [5],19 ± 2 µM
same,Selectivity,MM96L melanoma cells; [6],3.3
CN(C)c1ccc(C(=O)N[C@@H](CSCCCC(=O)NO)C(=O)NCc2ccccc2)cc1 [Example 73],IC50,[1]; [7],0.35 ± 0.07 µM
same,IC50,MM96L melanoma cells; [8],0.14 ± 0.09 µM
same,Selectivity,MM96L melanoma cells; [9],2.5
O=C(CCCCC[C@H](NC(=O)c1cccs1)C(=O)NCc1ccccc1)NO [Example 141],IC50,[1]; [2],5.2 µM
same,IC50,MM96L melanoma cells; [3],0.892 µM
same,SI (Selectivity Index = IC50 (NFF)/IC50 (MM96L)),MM96L melanoma cells,5.8
O=C(CCCSC[C@H](NC(=O)CCCc1ccccc1)C(=O)NCc1ccccc1)NO [Example 49],IC50,[1]; [4],11 ± 2 µM
same,IC50,MM96L melanoma cells; [5],5 ± 1 µM
same,Selectivity,MM96L melanoma cells; [6],2.2
CN(C)c1ccc(C(=O)N[C@@H](CSCCCC(=O)NO)C(=O)N2CCCCC2)cc1 [Example 91],IC50,[1]; [7],20 ± 2 µM
same,IC50,MM96L melanoma cells; [8],4.9 ± 0.3 µM
same,Selectivity,MM96L melanoma cells; [9],4.2
Cc1cc(C)cc(C(=O)N[C@@H](CSCCCC(=O)NO)C(=O)NCc2ccccc2)c1 [Example 26],IC50,[1]; [4],10.9 ± 0.9 µM
same,IC50,MM96L melanoma cells; [5],2 ± 0.4 µM
same,Selectivity,MM96L melanoma cells; [6],5.5
CN(C)c1ccc(C(=O)N[C@@H](CCCCCC(=O)NO)C(=O)NCc2ccccc2)cc1 [Example 122],IC50,[1]; [15],12 ± 2 µM
same,IC50,MM96L melanoma cells; [17],1.6 ± 0.3 µM
same,SI (Selectivity Index = IC50 (NFF)/IC50 (MM96L)),MM96L melanoma cells,7.8
CN(C)c1ccc(NC(=O)c2ccc(CNC(=O)[C@H](CSCCCC(=O)NO)NC(=O)c3ccc(N(C)C)cc3)cc2)cc1 [Example 109],IC50,[1]; [10],2.42 µM
same,IC50,MM96L melanoma cells; [11],0.54 µM
same,Selectivity,MM96L melanoma cells; [12],4.5
CN(C)c1ccc(C(=O)N[C@@H](CSCCCC(=O)NO)C(=O)NCCc2ccc(Br)cc2)cc1 [Example 86],IC50,[1]; [13],2.6 ± 0.3 µM
same,IC50,MM96L melanoma cells; [14],1 ± 0.1 µM
same,Selectivity,MM96L melanoma cells; [9],2.6
O=C(CCCCC[C@H](NC(=O)c1cc2c(O)cccc2[nH]1)C(=O)NCc1ccccc1)NO [Example 166],IC50,[1]; [2],2.21 µM
same,IC50,MM96L melanoma cells; [3],0.331 µM
same,IC50,MM96L melanoma cells; [16],≤ 0.5 µM
same,SI (Selectivity Index = IC50 (NFF)/IC50 (MM96L)),MM96L melanoma cells,6.7
O=C(CCCCC[C@H](NC(=O)C12CC3CC(CC(C3)C1)C2)C(=O)NCc1ccccc1)NO [Example 139],IC50,[1]; [15],7.13 µM
same,IC50,MM96L melanoma cells; [17],3.95 µM
same,SI (Selectivity Index = IC50 (NFF)/IC50 (MM96L)),MM96L melanoma cells,1.8
O=C(CCCCC[C@H](NC(=O)c1cc2ccccc2[nH]1)C(=O)NCc1ccccc1)NO [Example 131],IC50,[1]; [15],0.572 µM
same,IC50,MM96L melanoma cells; [17],0.08 µM
same,SI (Selectivity Index = IC50 (NFF)/IC50 (MM96L)),MM96L melanoma cells,7.1
O=C(CCCSC[C@H](NS(=O)(=O)c1ccccc1)C(=O)NCc1ccccc1)NO [Example 58],IC50,[1]; [4],> 100 µM
same,IC50,MM96L melanoma cells; [5],< 100 µM
same,Selectivity,MM96L melanoma cells; [6],>1
CN(C)c1ccc(C(=O)N[C@@H](CSCCCC(=O)NO)C(=O)N[C@H](c2ccccc2)[C@@H](O)c2ccccc2)cc1 [Example 76],IC50,[1]; [13],9 ± 3 µM
same,IC50,MM96L melanoma cells; [14],2.1 ± 0.2 µM
same,Selectivity,MM96L melanoma cells; [9],4.3
O=C(CCCCC[C@H](NC(=O)c1ccc(Br)cc1)C(=O)NCc1ccccn1)NO [Example 157],IC50,[1]; [2],2.09 µM
same,IC50,MM96L melanoma cells; [3],1.15 µM
same,SI (Selectivity Index = IC50 (NFF)/IC50 (MM96L)),MM96L melanoma cells,1.8
CN(C)c1ccc(C(=O)NC(CSCCCC(=O)NO)C(=O)NC(C)(C)C)cc1 (centres unmarked) [Example 96],IC50,[1]; [13],3.5 ± 0.5 µM
same,IC50,MM96L melanoma cells; [14],0.7 ± 0.2 µM
same,Selectivity,MM96L melanoma cells; [9],5.0
Cc1ccnc(NC(=O)[C@H](CSCCCC(=O)NO)NC(=O)/C=C/c2ccccc2)c1 [Example 99],IC50,"[1]; Homo sapiens, Fibroblast, 24 h, Table 7, 24 hours with compound, further growth, read-out: IC50 (μM) NFF",4 ± 0.6 µM
same,IC50,"MM96L melanoma cells; Homo sapiens, MM96L, 24 h, Table 7, 24 hours with compound, further growth, SRB, read-out: IC50 (μM) MM96L",0.6 ± 0.2 µM
same,Selectivity,"MM96L melanoma cells; Table 7, IC50 (NFF)/IC50 (MM96L)",6.5
CN(C)c1ccc(C(=O)N[C@@H](CSCCCC(=O)NO)C(=O)Nc2ccc3cc4ccccc4cc3c2)cc1 [Example 72],IC50,[1]; [7],1.14 ± 0.06 µM
same,IC50,MM96L melanoma cells; [8],0.55 ± 0.07 µM
same,Selectivity,MM96L melanoma cells; [9],2.1
O=C(CCCSC[C@H](NC(=O)c1ccccc1C(=O)c1ccccc1)C(=O)NCc1ccccc1)NO [Example 27],IC50,[1]; [4],30 ± 1 µM
same,IC50,MM96L melanoma cells; [5],24 ± 3 µM
same,Selectivity,MM96L melanoma cells; [6],1.3
